Results taken from PMC8388771, “Cationic Peptidomimetic Amphiphiles Having a N-Aryl- or N-Naphthyl-1,2,3-Triazole Core Structure Targeting Clostridioides (Clostridium) difficile: Synthesis, Antibacterial Evaluation, and an In Vivo C. difficile Infection Model” (Antibiotics, 2021).
In brackets after ≈: the same amount, converted by molar mass. Read-outs that look alike come from different tables or passages of the source. Each block holds one compound with its values, some of them ahead of it.

Columns and labels:
C. difficile ATCC 700057 = assay: Primary MIC assay, C. difficile ATCC 700057; assay type: cell-based, Clostridioides difficile; conditions: Clostridioides difficile, ATCC700057; Table 1; read-out: MIC C. difficile ATCC 700057
How it was run: (§1)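 Screening is conducted by minimum inhibitory concentration testing according to CLSI aerobic or anaerobic protocols, as appropriate to each strain.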

C. difficile 132 (RT027) [1] = assay: Primary MIC assay, C. difficile 132 (RT027); assay type: cell-based, Clostridioides difficile; conditions: Clostridioides difficile; Table 1; read-out: MIC C. difficile 132 (RT027)
How it was run: as §1

S. aureus ATCC 29213 [2] = assay: Primary MIC assay, S. aureus ATCC 29213; assay type: cell-based; conditions: Staphylococcus aureus, ATCC29213; Table 1; read-out: MIC S. aureus ATCC 29213
How it was run: as §1

S. aureus NCTC 10442 [3] = assay: Primary MIC assay, S. aureus NCTC 10442 (MRSA); assay type: cell-based; conditions: Staphylococcus aureus; Table 1; MRSA; read-out: MIC S. aureus NCTC 10442
How it was run: as §1

E. faecalis ATCC 29212 [4] = assay: Primary MIC assay, E. faecalis ATCC 29212; assay type: cell-based, Enterococcus faecalis; conditions: Table 1
How it was run: as §1

S. pneumoniae ATCC 49619 [5] = assay: Primary MIC assay, S. pneumoniae ATCC 49619; assay type: cell-based, Streptococcus pneumoniae; conditions: Table 1
How it was run: as §1

E. coli ATCC 25922 [6] = assay: Primary MIC assay, E. coli ATCC 25922; assay type: cell-based; conditions: Escherichia coli, ATCC25922; Table 1; read-out: MIC E. coli ATCC 25922
[7] = Cytotoxicity (CC50) assay by CO-ADD; assay type: cell-based, human; conditions: human, HEK293 cells (ATCC CRL-1573); Table S1; HEK293 cells
HEK293 cells [8] = assay: Cytotoxicity (CC50) assay by CO-ADD; assay type: cell-based, human; conditions: Table 1; cytotoxicity on HEK293 cells, tested at ≤32 µg/mL
human erythrocytes = assay: Hemolysis assay, HC50 determination; assay type: cell-based
Description: Hemolysis assay (human erythrocytes)–HC50 determination. These were performed as described previously.

S. aureus ATCC 43300 [9] = assay: CO-ADD MIC assay, S. aureus ATCC 43300 (MRSA); assay type: cell-based; conditions: Table S1, MRSA, CO-ADD
How it was run: (§2)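 CO-ADD whole-cell growth-inhibition MIC screening of the peptidomimetics against MRSA and Gram-negative strains.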

P. aeruginosa ATCC 27853 = assay: CO-ADD MIC assay, P. aeruginosa ATCC 27853; assay type: cell-based; conditions: Pseudomonas aeruginosa, ATCC27853, Table S1
How it was run: as §2

[10] = system: K. pneumoniae ATCC 700603; assay: CO-ADD MIC assay, K. pneumoniae ATCC 700603; assay type: cell-based; conditions: Klebsiella pneumoniae, ATCC700603, Table S1, multi-drug resistant
How it was run: as §2

A. baumannii ATCC 19606 = assay: CO-ADD MIC assay, A. baumannii ATCC 19606; assay type: cell-based; conditions: Acinetobacter baumannii, ATCC19606, Table S1
How it was run: as §2

E. coli ATCC 25922 [11] = assay: CO-ADD MIC assay, E. coli ATCC 25922; assay type: cell-based
How it was run: as §2

C. albicans ATCC 90028 = assay: CO-ADD MIC assay, C. albicans ATCC 90028; assay type: cell-based
How it was run: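 Whole-cell growth inhibition (MIC) screening run by CO-ADD. Fluconazole served as antifungal positive control.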

C. difficile 132 (RT027) [12] = system: C. difficile 132 (RT027); set-up: method as in PMID 30831407; conditions: Table 2; cited from earlier work
S. aureus ATCC 29213 [13] = system: S. aureus ATCC 29213; set-up: method as in ref 30 (1), 31 (2, 4), 19 (3); conditions: Table 2; ref 30 (1), 31 (2, 4), 19 (3); cited from earlier work
S. aureus NCTC 10442 [14] = system: S. aureus NCTC 10442; set-up: method as in ref 31 (2, 4), 19 (3); conditions: Table 2; MRSA; ref 31 (2, 4), 19 (3); cited from earlier work
E. faecalis ATCC 29212 [15] = system: E. faecalis ATCC 29212; set-up: method as in ref 30 (1), 31 (2, 4), 19 (3); conditions: Table 2; ref 30 (1), 31 (2, 4), 19 (3); cited from earlier work
S. pneumoniae ATCC 49619 [16] = system: S. pneumoniae ATCC 49619; set-up: method as in ref 30 (1), 31 (2, 4), 19 (3); conditions: Table 2; ref 30 (1), 31 (2, 4), 19 (3); cited from earlier work
E. coli ATCC 25922 [17] = system: E. coli ATCC 25922; set-up: method as in ref 30 (1), 31 (2, 4), 19 (3); conditions: Table 2; ref 30 (1), 31 (2, 4), 19 (3); cited from earlier work
HEK293 cells [18] = system: HEK293 cells; set-up: method as in PMID 30831407; conditions: Table 2; cited from earlier work
S. aureus ATCC 43300 [19] = system: S. aureus ATCC 43300; set-up: method as in PMID 30831407; conditions: Table 2; MRSA; cited from earlier work
sheep erythrocytes = conditions: cited from earlier work
[20] = set-up: method as in PMID 30901686; conditions: cited from earlier work
C. difficile [21] = conditions: Figure 1; cited from earlier work
C. difficile [22] = system: C. difficile; set-up: method as in PMID 30901686; conditions: murine CDI model, cited from earlier work

- MIC (C. difficile ATCC 700057): 128 µg/mL (≈ 208 µM)
- MIC (C. difficile 132 (RT027) [1]): > 128 µg/mL
- MIC (S. aureus ATCC 29213 [2]): 8 µg/mL (≈ 13 µM)
- MIC (S. aureus NCTC 10442 [3]): 8 µg/mL (≈ 13 µM)
- MIC (E. faecalis ATCC 29212 [4]; Enterococcus faecalis, ATCC29212, read-out: MIC E. faecalis ATCC 29212): 16 µg/mL (≈ 26 µM)
- MIC E. faecalis ATCC 29212 (E. faecalis ATCC 29212 [4]): 4 µg/mL (≈ 6.51 µM)
- MIC (S. pneumoniae ATCC 49619 [5]; Streptococcus pneumoniae, ATCC49619, read-out: MIC S. pneumoniae ATCC 49619): 16 µg/mL (≈ 26 µM)
- MIC S. pneumoniae ATCC 49619 (S. pneumoniae ATCC 49619 [5]): 4 µg/mL (≈ 6.51 µM)
- MIC (E. coli ATCC 25922 [6]): 128 µg/mL (≈ 208 µM)
- MIC (S. aureus ATCC 43300 [9]; Staphylococcus aureus, read-out: MIC S. aureus ATCC 43300): 16 µg/mL (≈ 26 µM)
- MIC S. aureus ATCC 43300 (S. aureus ATCC 43300 [9]): 8 µg/mL (≈ 13 µM)
- MIC (P. aeruginosa ATCC 27853): > 32 µg/mL
- MIC [10]: > 32 µg/mL
- MIC (A. baumannii ATCC 19606): > 32 µg/mL
- MIC (E. coli ATCC 25922 [11]; Escherichia coli, ATCC25922, Table S1): 32 µg/mL (≈ 52 µM)
- MIC E. coli ATCC 25922 (E. coli ATCC 25922 [11]; Table S1): > 32 µg/mL
- MIC (C. albicans ATCC 90028; Candida albicans, ATCC90028, Table S1): 32 µg/mL (≈ 52 µM)
- MIC C. albicans ATCC 90028 (C. albicans ATCC 90028; Table S1): > 32 µg/mL
Compound: CC(C)CCc1cn(-c2c(OCC(=O)N[C@H](CCCNC(=N)N)Cn3cc(C4CCCCC4)nn3)ccc3ccccc23)nn1 [Compound 21]
- CC50 [7]: > 32 µg/mL
- CC50 (HEK293 cells [8]): >32 µg/mL
- HC50 (human erythrocytes; Table 1, lysis of human erythrocytes): >32 µg/mL
- HC50 (human erythrocytes; Table S1, footnote says lysis of sheep erythrocytes): > 32 µg/mL

Compound: CC(C)CCOc1ccccc1-c1ccccc1OCc1cn(C[C@@H](CCCCN)NC(=O)[C@@H](CCCNC(=N)N)n2cc(C3CCCCC3)nn2)nn1 [Compound 4]
- MIC C. difficile 132 (RT027) (C. difficile 132 (RT027) [12]): 8 µg/mL (≈ 10.8 µM)
- MIC S. aureus ATCC 29213 (S. aureus ATCC 29213 [13]): 8 µg/mL (≈ 10.8 µM)
- MIC S. aureus NCTC 104422 (S. aureus NCTC 10442 [14]): 4 µg/mL (≈ 5.39 µM)
- MIC E. faecalis ATCC 29212 (E. faecalis ATCC 29212 [15]): 8 µg/mL (≈ 10.8 µM)
- MIC S. pneumoniae ATCC 49619 (S. pneumoniae ATCC 49619 [16]): 4 µg/mL (≈ 5.39 µM)
- MIC E. coli ATCC 25922 (E. coli ATCC 25922 [17]): 8 µg/mL (≈ 10.8 µM)
- CC50 (HEK293 cells [18]): 14.2 µg/mL (≈ 19.1 µM)
- MIC S. aureus ATCC 43300 (S. aureus ATCC 43300 [19]): 4 µg/mL (≈ 5.39 µM)
- % hemolysis at 50 µg/mL (sheep erythrocytes; Table 2 HC50 column, footnote i, sheep erythrocytes): 23% ^i
- in vitro hemolytic activity (sheep erythrocytes; in words): low
- appearance in the solubility assay ([20]; Figure 1): homogenous suspension
- SR = solubility ratio relative to that of compound 1 [20]: 4
- MIC against C. difficile (C. difficile [21]): 4 µg/mL (≈ 5.39 µM)
- survival rate at 24 h (C. difficile [22]; 10% DMSO group 0%): 60%
- survival rate after 48 h (C. difficile [22]): 0%
